# Results as given in patent publication US10316017B2, “COT modulators and methods of use thereof” (Gilead Sciences, Inc., priority 2015, dated 2019).
# Where two headings read alike, the source gives them in different places.
# Target: T1, human Cot catalytic domain (30-397 amino acids) (Homo sapiens, UniProt P41279)
# T1 construct: Purified recombinant human Cot catalytic domain (30-397 amino acids) was purchased from Cama Biosciences; purchased Cama Biosciences (so in the source)
# Experiment: High Throughput Cot Biochemical Assay (KinEASE TR-FRET)
# Conditions: 400 μM ATP
# Description: Example 61: High Throughput Cot Biochemical Assay
# In this assay, Cot-catalyzes the phosphorylation of a XL665-labeled peptide substrate. Europium conjugated phospho-tyrosine specific antibody binds the resulting phosphorylated peptide. […] Purified recombinant human Cot catalytic domain (30-397 amino acids) was purchased from Cama Biosciences. […] The standard 5 μL reaction mixture contained 400 μM ATP, 1 μM STK3 peptide, 5 nM of Cot in reaction buffer (10 mM MOPS, pH 7.0, 0.02% NaN3, 0.5 mg/mL BSA, 10 mM MgOAc, 1 mM DTT, 0.025% NP-40, 1.5% glycerol) and 0.1% DMSO.
# [1] = Cot KinEASE TR-FRET, read-out: IC50 HTRF
# T1 sequence (P41279 30-397): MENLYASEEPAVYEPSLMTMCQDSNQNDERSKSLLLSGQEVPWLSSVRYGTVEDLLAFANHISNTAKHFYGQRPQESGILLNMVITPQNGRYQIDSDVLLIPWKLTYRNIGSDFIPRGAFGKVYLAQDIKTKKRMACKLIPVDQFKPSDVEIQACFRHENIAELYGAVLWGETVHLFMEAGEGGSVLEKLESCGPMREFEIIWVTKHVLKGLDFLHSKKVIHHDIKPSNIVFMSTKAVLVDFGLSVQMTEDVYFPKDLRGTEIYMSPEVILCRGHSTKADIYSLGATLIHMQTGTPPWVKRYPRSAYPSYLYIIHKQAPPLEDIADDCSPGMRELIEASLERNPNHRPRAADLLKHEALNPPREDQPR
SMILES,IC50 [1] [nM],"IC50 (first value of the cell IC50/EC50, 5 nM Cot, read-out: IC50/EC50 [nM]: IC50 (Cot)) [nM]"
"N#Cc1cnc2c(Cl)cc(NC(c3ccc(F)cc3)c3cn(C4CCNC4)nn3)cc2c1Nc1ccc(F)c(Cl)c1 (stereo in doubt) [Example 873, 8-chloro-4-((3-chloro-4-fluorophenyl)amino)-6-(((4-fluorophenyl)(1-((S)-pyrrolidin-3-yl)-1H-1,2,3-triazol-4-yl)methyl)amino)quinoline-3-carbonitrile]",21,–
"CCN1CCC(n2cc([C@H](C)Nc3cc(Cl)c4ncc(C#N)c(Nc5ccc(F)c(Cl)c5)c4c3)nn2)CC1 [Comparative Example 2, reference compound]",–,62
CCN1CCC(n2cc(C(Nc3cc(Cl)c4ncc(C#N)c(Nc5ccc(F)c(Cl)c5)c4c3)c3ccc(Cl)cc3)nn2)CC1 (stereo not shown) [Compound 6],13,–
N#Cc1cnc2c(Cl)cc(N[C@@H](c3ccc(F)cc3)c3cn(C4CCN(C5COC5)CC4)nn3)cc2c1Nc1ccc(F)c(Cl)c1 [Compound 31],19,–
COCc1cccc([C@H](Nc2cc(Cl)c3ncc(C#N)c(Nc4ccc(F)c(Cl)c4)c3c2)c2cn(C3CCN(C(C)(C)C)CC3)nn2)c1 [Compound 38],2,–
COC(=O)c1cccc([C@@H](c2cn(C3CCN(C(C)(C)C)CC3)nn2)N(C)c2cc(Cl)c3ncc(C#N)c(Nc4ccc(F)c(Cl)c4)c3c2)c1 [Compound 39],1990,–
"N#Cc1cnc2c(Cl)cc(NC(c3ccc(F)cc3)c3ccno3)cc2c1Nc1ccc(F)c(Cl)c1 (stereo not shown) [Example 717, 8-chloro-4-((3-chloro-4-fluorophenyl)amino)-6-(((4-fluorophenyl)(isoxazol-5-yl)methyl)amino)quinoline-3-carbonitrile]",1580,–
"Cc1snnc1C(Nc1cc(Cl)c2ncc(C#N)c(Nc3ccc(F)c(Cl)c3)c2c1)c1ccc(F)cc1 (stereo not shown) [Example 718, 8-chloro-4-((3-chloro-4-fluorophenyl)amino)-6-(((4-fluorophenyl)(5-methyl-1,2,3-thiadiazol-4-yl)methyl)amino)quinoline-3-carbonitrile]",3460,–
"C#CC(c1ccc(Cl)cc1)N(c1cc(Cl)c2ncc(C#N)c(Nc3cncc(Cl)c3)c2c1)C(c1ccc(Cl)cc1)c1cn(C2CCN(C(C)(C)C)CC2)nn1 (stereo not shown) [Example 725, 6-(((1-(1-(tert-butyl)piperidin-4-yl)-1H-1,2,3-triazol-4-yl)(4-chlorophenyl)methyl)(1-(4-chlorophenyl)prop-2-yn-1-yl)amino)-8-chloro-4-((5-chloropyridin-3-yl)amino)quinoline-3-carbonitrile]",338,–
"CN(C)CCNCc1cccc([C@H](Nc2cc(Cl)c3ncc(C#N)c(Nc4ccc(F)c(Cl)c4)c3c2)c2cn(C3CCN(C(C)(C)C)CC3)nn2)c1 [Example 726, (S)-6-(((1-(1-(tert-butyl)piperidin-4-yl)-1H-1,2,3-triazol-4-yl)(3-(((2-(dimethylamino)ethyl)amino)methyl)phenyl)methyl)amino)-8-chloro-4-((3-chloro-4-fluorophenyl)amino)quinoline-3-carbonitrile]",39,–
"Cn1cc(C(Nc2cc(Cl)c3ncc(C#N)c(Nc4ccc(F)c(Cl)c4)c3c2)c2cccc(C3OCCO3)c2)nn1 (stereo not shown) [Example 730, 6-(((3-(1,3-dioxolan-2-yl)phenyl)(1-methyl-1H-1,2,3-triazol-4-yl)methyl)amino)-8-chloro-4-((3-chloro-4-fluorophenyl)amino)quinoline-3-carbonitrile]",12,–
"CC(C)(C)N1CCC(n2cc([C@@H](Nc3cc(Cl)c4ncc(C#N)c(Nc5ccc(F)c(F)c5)c4c3)c3ccc(Cl)cc3)nn2)CC1 [Example 732, (S)-6-(((1-(1-(tert-butyl)piperidin-4-yl)-1H-1,2,3-triazol-4-yl)(4-chlorophenyl)methyl)amino)-8-chloro-4-((3,4-difluorophenyl)amino)quinoline-3-carbonitrile]",30,–
"CN(C)Cc1ccc([C@H](Nc2cc(Cl)c3ncc(C#N)c(Nc4ccc(F)c(Cl)c4)c3c2)c2cn(C3CCN(C(C)(C)C)CC3)nn2)cc1 [Example 735, (S)-6-(((1-(1-(tert-butyl)piperidin-4-yl)-1H-1,2,3-triazol-4-yl)(4-((dimethylamino)methyl)phenyl)methyl)amino)-8-chloro-4-((3-chloro-4-fluorophenyl)amino)quinoline-3-carbonitrile]",105,–
"CN(c1ccc(F)c(Cl)c1)c1c(C#N)cnc2c(Cl)cc(N[C@@H](c3ccc(Cl)cc3)c3cn(C4CCN(C(C)(C)C)CC4)nn3)cc12 [Example 749, (S)-6-(((1-(1-(tert-butyl)piperidin-4-yl)-1H-1,2,3-triazol-4-yl)(4-chlorophenyl)methyl)amino)-8-chloro-4-((3-chloro-4-fluorophenyl)(methyl)amino) quinoline-3-carbonitrile]",3210,–
"COc1cc(Nc2c(C#N)cnc3c(Cl)cc(N[C@@H](c4ccc(Cl)cc4)c4cn(C5CCN(C(C)(C)C)CC5)nn4)cc23)c(Cl)cc1Cl [Example 751, (S)-6-(((1-(1-(tert-butyl)piperidin-4-yl)-1H-1,2,3-triazol-4-yl)(4-chlorophenyl)methyl)amino)-8-chloro-4-((2,4-dichloro-5-methoxyphenyl)amino)quinoline-3-carbonitrile]",> 10000,–
"CC(C)(C)N1CCC(n2cc([C@@H](Nc3cc(Cl)c4ncc(C#N)c(Nc5ccn(CC(F)(F)F)n5)c4c3)c3ccc(Cl)cc3)nn2)CC1 [Example 752, (S)-6-(((1-(1-(tert-butyl)piperidin-4-yl)-1H-1,2,3-triazol-4-yl)(4-chlorophenyl)methyl)amino)-8-chloro-4-((1-(2,2,2-trifluoroethyl)-1H-pyrazol-3-yl)amino)quinoline-3-carbonitrile]",> 10000,–
"CC(C)(C)N1CCC(n2cc([C@@H](Nc3cc(Cl)c4ncc(C#N)c(Nc5ccc(F)c(S(C)(=O)=O)c5)c4c3)c3ccc(Cl)cc3)nn2)CC1 [Example 754, (S)-6-(((1-(1-(tert-butyl)piperidin-4-yl)-1H-1,2,3-triazol-4-yl)(4-chlorophenyl)methyl)amino)-8-chloro-4-((4-fluoro-3-(methylsulfonyl)phenyl)amino) quinoline-3-carbonitrile]",2530,–
"CC(C)(C)N1CCC(n2cc([C@@H](Nc3ccc4nc(N)c(C#N)c(Nc5ccc(F)c(Cl)c5)c4c3)c3ccc(Cl)cc3)nn2)CC1 [Example 760, (S)-2-amino-6-(((1-(1-(tert-butyl)piperidin-4-yl)-1H-1,2,3-triazol-4-yl)(4-chlorophenyl)methyl)amino)-4-((3-chloro-4-fluorophenyl)amino)quinoline-3-carbonitrile]",2340,–
"CC(C)(C)N1CCC(n2cc([C@@H](Nc3cc(Cl)c4ncc(C#N)c(Nc5cccc(C(F)F)c5)c4c3)c3ccc(Cl)cc3)nn2)CC1 [Example 761, (S)-6-(((1-(1-(tert-butyl)piperidin-4-yl)-1H-1,2,3-triazol-4-yl)(4-chlorophenyl)methyl)amino)-8-chloro-4-((3-(difluoromethyl)phenyl)amino) quinoline-3-carbonitrile]",484,–
"CC(C)(C)N1CCC(n2cc([C@@H](Nc3cc(Cl)c4ncc(C#N)c(Nc5cccc(C(F)(F)F)c5)c4c3)c3ccc(Cl)cc3)nn2)CC1 [Example 762, (S)-6-(((1-(1-(tert-butyl)piperidin-4-yl)-1H-1,2,3-triazol-4-yl)(4-chlorophenyl)methyl)amino)-8-chloro-4-((3-(trifluoromethyl)phenyl)amino) quinoline-3-carbonitrile]",513,–
"CC(C)(C)N1CCC(n2cc([C@@H](Nc3cc(Cl)c4ncc(C#N)c(Nc5ccc(F)c(Br)c5)c4c3)c3ccc(Cl)cc3)nn2)CC1 [Example 763, (S)-4-((3-bromo-4-fluorophenyl)amino)-6-(((1-(1-(tert-butyl)piperidin-4-yl)-1H-1,2,3-triazol-4-yl)(4-chlorophenyl)methyl)amino)-8-chloroquinoline-3-carbonitrile]",23,–
"COc1cc2ncc(C#N)c(Nc3ccc(F)c(Cl)c3)c2cc1N[C@@H](c1ccc(Cl)cc1)c1cn(C2CCN(C(C)(C)C)CC2)nn1 [Example 769, (S)-6-(((1-(1-(tert-butyl)piperidin-4-yl)-1H-1,2,3-triazol-4-yl)(4-chlorophenyl)methyl)amino)-4-((3-chloro-4-fluorophenyl)amino)-7-methoxyquinoline-3-carbonitrile]",> 10000,–
"CC(C)(C)N1CCC(n2cc([C@@H](Nc3cc(Cl)c4ncc(C#N)c(Nc5ccc(C#N)c(Cl)c5)c4c3)c3ccc(Cl)cc3)nn2)CC1 [Example 770, (S)-6-(((1-(1-(tert-butyl)piperidin-4-yl)-1H-1,2,3-triazol-4-yl)(4-chlorophenyl)methyl)amino)-8-chloro-4-((3-chloro-4-cyanophenyl)amino)quinoline-3-carbonitrile]",60,–
"CC(C)(C)N1CCC(n2cc([C@@H](Nc3cc(Cl)c4ncc(C#N)c(Nc5cncc(F)c5)c4c3)c3ccc(Cl)cc3)nn2)CC1 [Example 771, (S)-6-(((1-(1-(tert-butyl)piperidin-4-yl)-1H-1,2,3-triazol-4-yl)(4-chlorophenyl)methyl)amino)-8-chloro-4-((5-fluoropyridin-3-yl)amino)quinoline-3-carbonitrile]",93,–
"CC(C)(C)N1CCC(n2cc([C@@H](Nc3cc(Cl)c4ncc(C#N)c(Nc5cccnc5)c4c3)c3ccc(Cl)cc3)nn2)CC1 [Example 772, (S)-6-(((1-(1-(tert-butyl)piperidin-4-yl)-1H-1,2,3-triazol-4-yl)(4-chlorophenyl)methyl)amino)-8-chloro-4-(pyridin-3-ylamino)quinoline-3-carbonitrile]",324,–
